In ChEMBL document CHEMBL2385026, “Identification of C-2 hydroxyethyl imidazopyrrolopyridines as potent JAK1 inhibitors with favorable physicochemical properties and high selectivity over JAK2” (J Med Chem, 2013):
≈ marks a conversion by molar mass, not a printed value. Calls of active or inactive are those of the source. The calls are words filed in the database; no cut-off is given here.

Assays:
Rattus norvegicus [1] = assay: Antiarthritic activity in Lewis rat collagen-induced arthritis model assessed as decrease in mean ankle thicknesses at 500 mg/kg, po qd administered for 11 days; assay type: functional, organism-based; set-up: dose 500 mg/kg
Cytochrome P450 3A4 [2] = target: T1, Cytochrome P450 3A4 (Homo sapiens, UniProt P08684); assay: Reversible inhibition of CYP3A4 in human liver microsomes using testosterone as substrate by LC/MS/MS analysis; assay type: ADME, Microsome
[3] = AUC in Lewis rat collagen-induced arthritis model at 100 mg/kg, po administered on day 20; assay type: ADME, organism-based; set-up: dose 100 mg/kg, route oral; conditions: in vivo
[4] = AUC in Lewis rat collagen-induced arthritis model at 500 mg/kg, po administered on day 20; assay type: ADME, organism-based; set-up: dose 500 mg/kg, route oral; conditions: in vivo
[5] = AUC in Lewis rat collagen-induced arthritis model at 20 mg/kg, po administered on day 20; assay type: ADME, organism-based; set-up: dose 20 mg/kg, route oral; conditions: in vivo
[6] = AUC in Lewis rat collagen-induced arthritis model at 100 mg/kg, po administered on day 10; assay type: ADME, organism-based; set-up: dose 100 mg/kg, route oral; conditions: in vivo
[7] = AUC in Lewis rat collagen-induced arthritis model at 500 mg/kg, po administered on day 10; assay type: ADME, organism-based; set-up: dose 500 mg/kg, route oral; conditions: in vivo
[8] = AUC in Lewis rat collagen-induced arthritis model at 20 mg/kg, po administered on day 10; assay type: ADME, organism-based; set-up: dose 20 mg/kg, route oral; conditions: in vivo
Rattus norvegicus [9] = assay: Antiarthritic activity in Lewis rat collagen-induced arthritis model assessed as decrease in mean ankle thicknesses at 20 mg/kg, po qd administered for 11 days; assay type: functional, organism-based; set-up: dose 20 mg/kg
Rattus norvegicus [10] = assay: Antiarthritic activity in Lewis rat collagen-induced arthritis model assessed as decrease in mean ankle thicknesses at 100 mg/kg, po qd administered for 11 days; assay type: functional, organism-based; set-up: dose 100 mg/kg
Cytochrome P450 1A2 = target: T2, Cytochrome P450 1A2 (Homo sapiens, UniProt P05177); assay: Reversible inhibition of CYP1A2 in human liver microsomes using phenacetin as substrate by LC/MS/MS analysis; assay type: ADME, Microsome
T2 sequence (P05177 whole entry): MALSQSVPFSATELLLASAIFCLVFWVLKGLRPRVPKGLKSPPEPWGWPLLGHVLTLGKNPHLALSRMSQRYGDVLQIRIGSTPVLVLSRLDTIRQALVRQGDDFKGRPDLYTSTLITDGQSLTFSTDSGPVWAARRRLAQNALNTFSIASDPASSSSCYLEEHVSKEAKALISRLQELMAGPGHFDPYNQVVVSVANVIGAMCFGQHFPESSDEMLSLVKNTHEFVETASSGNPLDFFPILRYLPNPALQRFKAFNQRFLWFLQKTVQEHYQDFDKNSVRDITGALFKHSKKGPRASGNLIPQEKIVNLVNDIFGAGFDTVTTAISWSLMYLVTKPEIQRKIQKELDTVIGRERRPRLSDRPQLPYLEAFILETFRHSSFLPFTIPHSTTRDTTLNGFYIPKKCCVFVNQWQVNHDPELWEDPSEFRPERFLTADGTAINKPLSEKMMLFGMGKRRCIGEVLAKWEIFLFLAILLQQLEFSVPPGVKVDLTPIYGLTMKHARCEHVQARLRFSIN

Cytochrome P450 3A4 [11] = target: T1, Cytochrome P450 3A4; assay: Reversible inhibition of CYP3A4 in human liver microsomes using midazolam as substrate by LC/MS/MS analysis; assay type: ADME, Microsome
[12] = target: Tyrosine-protein kinase JAK3 (Homo sapiens, UniProt P52333)
[13] = test system: Platelet-derived growth factor receptor alpha (Homo sapiens), P16234 [V561D]; assay: Inhibition of PDGFRalpha V561D mutant (unknown origin) at 1 uM
[14] = Oral bioavailability in cynomolgus monkey at 2 mg/kg by LC/MS/MS analysis; assay type: ADME, organism-based, Macaca fascicularis; conditions: in vivo
[15] = Oral bioavailability in Beagle dog at 2 mg/kg by LC/MS/MS analysis; assay type: ADME, organism-based, Canis lupus familiaris; conditions: Beagle, in vivo
[16] = (§1) Oral bioavailability in Sprague-Dawley rat at 2 mg/kg by LC/MS/MS analysis; assay type: ADME, organism-based; conditions: Sprague-Dawley, in vivo
[17] = Cmax in cynomolgus monkey at 2 mg/kg, po by LC/MS/MS analysis; assay type: ADME, organism-based, Macaca fascicularis; set-up: dose 2 mg/kg, route oral; conditions: in vivo
[18] = Cmax in Beagle dog at 2 mg/kg, po by LC/MS/MS analysis; assay type: ADME, organism-based, Canis lupus familiaris; set-up: dose 2 mg/kg, route oral; conditions: in vivo
[19] = AUC in cynomolgus monkey at 2 mg/kg, po by LC/MS/MS analysis; assay type: ADME, organism-based, Macaca fascicularis; set-up: dose 2 mg/kg, route oral; conditions: plasma
[20] = AUC in Beagle dog at 2 mg/kg, po by LC/MS/MS analysis; assay type: ADME, organism-based, Canis lupus familiaris; set-up: dose 2 mg/kg, route oral; conditions: plasma
[21] = AUC in Sprague-Dawley rat at 2 mg/kg, po by LC/MS/MS analysis; assay type: ADME, organism-based; set-up: dose 2 mg/kg, route oral; conditions: plasma
[22] = Half life in cynomolgus monkey at 0.4 mg/kg, iv by LC/MS/MS analysis; assay type: ADME, organism-based, Macaca fascicularis; set-up: dose 0.4 mg/kg, route intravenous; conditions: in vivo
[23] = Half life in Beagle dog at 0.4 mg/kg, iv by LC/MS/MS analysis; assay type: ADME, organism-based, Canis lupus familiaris; set-up: dose 0.4 mg/kg, route intravenous; conditions: in vivo
[24] = Half life in Sprague-Dawley rat at 0.4 mg/kg, iv by LC/MS/MS analysis; assay type: ADME, organism-based; set-up: dose 0.4 mg/kg, route intravenous; conditions: in vivo
[25] = Clearance in Beagle dog at 0.4 mg/kg, iv by LC/MS/MS analysis; assay type: ADME, organism-based, Canis lupus familiaris; set-up: dose 0.4 mg/kg, route intravenous; conditions: in vivo
[26] = Clearance in cynomolgus monkey at 0.4 mg/kg, iv by LC/MS/MS analysis; assay type: ADME, organism-based, Macaca fascicularis; set-up: dose 0.4 mg/kg, route intravenous; conditions: in vivo
[27] = Clearance in Sprague-Dawley rat at 0.4 mg/kg, iv by LC/MS/MS analysis; assay type: ADME, organism-based; set-up: dose 0.4 mg/kg, route intravenous; conditions: in vivo
[28] = Metabolic stability in monkey hepatocytes assessed as hepatic clearance; assay type: ADME, cell-based, Macaca mulatta, Liver, Hepatocyte; conditions: rhesus monkey
[29] = Metabolic stability in dog hepatocytes assessed as hepatic clearance; assay type: ADME, cell-based, Canis lupus familiaris, Liver, Hepatocyte
[30] = Metabolic stability in rat hepatocytes assessed as hepatic clearance; assay type: ADME, cell-based, Liver, Hepatocyte
[31] = Plasma protein binding in cynomolgus monkey; assay type: ADME, cell-free, Macaca fascicularis; conditions: read-out: PPB (converted)
[32] = Plasma protein binding in dog; assay type: ADME, cell-free, Canis lupus familiaris; conditions: read-out: PPB (converted)
[33] = Apparent permeability across basolateral to apical side in dog MDCK cells; assay type: ADME, cell-based, Canis lupus familiaris
[34] = Plasma protein binding in rat; assay type: ADME, cell-free; conditions: read-out: PPB (converted)
[35] = Thermodynamic solubility in aqueous buffer at pH 7.4; assay type: physicochemical; conditions: read-out: Therm_solubility
[36] = Thermodynamic solubility in aqueous buffer at pH 2; assay type: physicochemical; conditions: read-out: Therm_solubility
[37] = Hepatic clearance in human liver microsomes by LC/MS/MS analysis; assay type: ADME, Microsome
[38] = Hepatic clearance in human hepatocytes after 1 to 4 hrs by LC/MS/MS analysis; assay type: ADME, cell-based, Liver, Hepatocyte
[39] = Apparent permeability across apical to basolateral side in dog MDCK cells; assay type: ADME, cell-based, Canis lupus familiaris
[40] = Cmax in Sprague-Dawley rat at 2 mg/kg, po by LC/MS/MS analysis; assay type: ADME, organism-based; set-up: dose 2 mg/kg, route oral; conditions: in vivo
Cytochrome P450 2C19 = Cytochrome P450 2C19 (Homo sapiens, UniProt P33261)
Cytochrome P450 2D6 = Cytochrome P450 2D6 (Homo sapiens, UniProt P10635)
Cytochrome P450 2C9 = Cytochrome P450 2C9 (Homo sapiens, UniProt P11712)
[41] = target: Voltage-gated inwardly rectifying potassium channel KCNH2 (Homo sapiens, UniProt Q12809)
[42] = target: T3, Non-receptor tyrosine-protein kinase TYK2 (Homo sapiens, UniProt P29597)
[43] = target: T3, Non-receptor tyrosine-protein kinase TYK2; remark: listed apart in the source
[44] = target: T4, Tyrosine-protein kinase JAK1 (Homo sapiens, UniProt P23458)
[45] = target: T4, Tyrosine-protein kinase JAK1; remark: listed apart in the source
[46] = target: T4, Tyrosine-protein kinase JAK1; remark: listed apart in the source
Rattus norvegicus [47] = assay: as §1; assay type: ADME, organism-based; conditions: in vivo

T1 sequence (P08684 whole entry): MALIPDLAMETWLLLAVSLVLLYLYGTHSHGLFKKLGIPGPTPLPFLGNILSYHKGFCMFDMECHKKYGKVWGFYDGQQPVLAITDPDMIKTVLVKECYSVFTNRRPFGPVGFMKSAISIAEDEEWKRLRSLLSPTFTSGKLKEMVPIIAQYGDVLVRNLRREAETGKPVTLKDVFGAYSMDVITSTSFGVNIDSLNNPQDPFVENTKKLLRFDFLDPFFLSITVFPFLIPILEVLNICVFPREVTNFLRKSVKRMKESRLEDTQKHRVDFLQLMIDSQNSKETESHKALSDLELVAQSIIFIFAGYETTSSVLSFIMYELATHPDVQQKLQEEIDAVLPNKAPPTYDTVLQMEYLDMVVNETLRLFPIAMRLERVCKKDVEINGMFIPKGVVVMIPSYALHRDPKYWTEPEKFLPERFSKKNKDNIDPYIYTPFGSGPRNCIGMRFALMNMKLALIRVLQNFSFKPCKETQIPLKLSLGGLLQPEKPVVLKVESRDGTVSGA
T4 sequence (P23458 whole entry): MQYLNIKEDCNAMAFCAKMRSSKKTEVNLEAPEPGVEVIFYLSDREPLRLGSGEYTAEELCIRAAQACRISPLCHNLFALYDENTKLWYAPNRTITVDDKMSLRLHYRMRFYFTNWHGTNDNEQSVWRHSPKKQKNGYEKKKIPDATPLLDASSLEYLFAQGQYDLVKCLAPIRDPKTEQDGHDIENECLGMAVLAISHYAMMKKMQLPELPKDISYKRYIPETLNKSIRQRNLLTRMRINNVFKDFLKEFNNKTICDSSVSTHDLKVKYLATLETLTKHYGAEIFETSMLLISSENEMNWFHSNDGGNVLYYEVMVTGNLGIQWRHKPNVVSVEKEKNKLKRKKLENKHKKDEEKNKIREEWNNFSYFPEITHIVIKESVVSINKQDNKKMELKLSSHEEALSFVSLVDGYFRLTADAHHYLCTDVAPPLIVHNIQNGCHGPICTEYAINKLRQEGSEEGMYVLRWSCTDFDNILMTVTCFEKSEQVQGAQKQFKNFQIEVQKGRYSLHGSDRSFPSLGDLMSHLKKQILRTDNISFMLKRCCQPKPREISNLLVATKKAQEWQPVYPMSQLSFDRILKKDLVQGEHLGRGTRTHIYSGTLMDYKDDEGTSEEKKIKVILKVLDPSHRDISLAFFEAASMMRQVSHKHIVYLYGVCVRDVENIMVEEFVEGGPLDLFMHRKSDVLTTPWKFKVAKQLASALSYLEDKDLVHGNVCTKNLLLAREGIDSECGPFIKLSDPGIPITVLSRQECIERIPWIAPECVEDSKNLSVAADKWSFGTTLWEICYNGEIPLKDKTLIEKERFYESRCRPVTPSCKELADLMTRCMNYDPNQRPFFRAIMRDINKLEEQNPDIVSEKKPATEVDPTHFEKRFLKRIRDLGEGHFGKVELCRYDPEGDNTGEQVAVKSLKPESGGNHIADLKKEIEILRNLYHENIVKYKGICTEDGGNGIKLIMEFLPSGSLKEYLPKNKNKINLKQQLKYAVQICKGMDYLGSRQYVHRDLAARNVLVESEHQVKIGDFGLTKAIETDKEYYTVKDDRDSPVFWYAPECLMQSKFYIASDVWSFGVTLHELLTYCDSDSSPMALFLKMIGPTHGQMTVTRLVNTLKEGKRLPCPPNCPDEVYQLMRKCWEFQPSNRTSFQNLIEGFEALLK
T3 sequence (P29597 whole entry): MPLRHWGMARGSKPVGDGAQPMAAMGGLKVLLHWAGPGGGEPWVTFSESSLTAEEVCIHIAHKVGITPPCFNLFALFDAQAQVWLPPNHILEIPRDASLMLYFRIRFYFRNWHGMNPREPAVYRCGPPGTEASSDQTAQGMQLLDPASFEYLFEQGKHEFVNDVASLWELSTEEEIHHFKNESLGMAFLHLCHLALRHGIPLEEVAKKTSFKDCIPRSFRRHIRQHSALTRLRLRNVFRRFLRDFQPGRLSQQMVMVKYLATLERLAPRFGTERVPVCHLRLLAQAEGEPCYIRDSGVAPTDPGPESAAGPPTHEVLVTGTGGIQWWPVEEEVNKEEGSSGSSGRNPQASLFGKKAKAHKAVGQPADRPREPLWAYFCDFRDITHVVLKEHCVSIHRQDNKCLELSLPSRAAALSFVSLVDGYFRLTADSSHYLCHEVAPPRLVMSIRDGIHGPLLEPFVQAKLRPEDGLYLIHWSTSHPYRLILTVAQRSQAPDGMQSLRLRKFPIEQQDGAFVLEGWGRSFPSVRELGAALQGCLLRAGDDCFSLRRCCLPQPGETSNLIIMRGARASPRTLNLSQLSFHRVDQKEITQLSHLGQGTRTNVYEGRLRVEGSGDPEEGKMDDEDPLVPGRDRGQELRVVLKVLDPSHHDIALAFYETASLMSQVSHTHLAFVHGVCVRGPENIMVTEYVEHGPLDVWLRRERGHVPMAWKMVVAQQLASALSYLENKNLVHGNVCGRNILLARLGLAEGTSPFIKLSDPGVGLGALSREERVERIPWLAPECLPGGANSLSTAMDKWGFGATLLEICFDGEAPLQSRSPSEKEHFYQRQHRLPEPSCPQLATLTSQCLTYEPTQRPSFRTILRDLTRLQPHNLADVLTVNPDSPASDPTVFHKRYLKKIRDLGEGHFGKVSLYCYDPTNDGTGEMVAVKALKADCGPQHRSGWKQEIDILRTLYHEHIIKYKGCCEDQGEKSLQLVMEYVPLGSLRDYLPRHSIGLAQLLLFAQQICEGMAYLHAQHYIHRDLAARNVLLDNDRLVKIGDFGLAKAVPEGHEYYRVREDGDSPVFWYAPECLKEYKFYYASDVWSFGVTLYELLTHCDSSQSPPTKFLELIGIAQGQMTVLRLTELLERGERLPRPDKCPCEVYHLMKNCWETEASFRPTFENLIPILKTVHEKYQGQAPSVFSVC
Sequence of Voltage-gated inwardly rectifying potassium channel KCNH2 (Q12809 whole entry): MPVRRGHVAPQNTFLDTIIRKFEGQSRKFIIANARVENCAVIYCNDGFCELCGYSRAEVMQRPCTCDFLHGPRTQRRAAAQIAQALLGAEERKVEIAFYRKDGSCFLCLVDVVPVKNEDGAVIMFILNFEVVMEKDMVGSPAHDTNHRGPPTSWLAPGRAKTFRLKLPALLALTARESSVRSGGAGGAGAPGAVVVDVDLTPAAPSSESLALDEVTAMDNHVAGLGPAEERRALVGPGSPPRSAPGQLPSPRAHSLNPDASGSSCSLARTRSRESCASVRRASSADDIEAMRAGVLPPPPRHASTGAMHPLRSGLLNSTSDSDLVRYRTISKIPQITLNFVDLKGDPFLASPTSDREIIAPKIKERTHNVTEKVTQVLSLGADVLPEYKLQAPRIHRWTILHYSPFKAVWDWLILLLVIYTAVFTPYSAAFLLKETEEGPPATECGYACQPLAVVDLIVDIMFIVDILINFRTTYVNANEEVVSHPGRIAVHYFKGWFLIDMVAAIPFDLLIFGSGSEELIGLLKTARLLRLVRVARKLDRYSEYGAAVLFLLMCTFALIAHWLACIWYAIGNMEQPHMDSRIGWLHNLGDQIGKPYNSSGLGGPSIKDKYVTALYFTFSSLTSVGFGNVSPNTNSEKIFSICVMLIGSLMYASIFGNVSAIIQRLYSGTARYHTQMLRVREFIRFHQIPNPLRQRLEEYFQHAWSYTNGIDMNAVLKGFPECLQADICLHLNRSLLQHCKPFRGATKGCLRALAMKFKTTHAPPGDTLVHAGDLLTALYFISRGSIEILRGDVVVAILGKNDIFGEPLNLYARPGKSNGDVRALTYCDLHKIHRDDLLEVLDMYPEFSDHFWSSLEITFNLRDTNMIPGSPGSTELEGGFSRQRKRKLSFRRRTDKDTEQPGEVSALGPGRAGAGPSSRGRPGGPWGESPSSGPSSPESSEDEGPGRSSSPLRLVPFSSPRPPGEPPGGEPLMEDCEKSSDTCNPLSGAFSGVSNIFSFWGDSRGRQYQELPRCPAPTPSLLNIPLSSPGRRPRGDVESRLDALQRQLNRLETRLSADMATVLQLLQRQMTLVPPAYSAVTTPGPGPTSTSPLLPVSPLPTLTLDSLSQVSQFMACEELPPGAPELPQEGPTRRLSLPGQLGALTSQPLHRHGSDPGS
Sequence of Cytochrome P450 2C19 (P33261 whole entry): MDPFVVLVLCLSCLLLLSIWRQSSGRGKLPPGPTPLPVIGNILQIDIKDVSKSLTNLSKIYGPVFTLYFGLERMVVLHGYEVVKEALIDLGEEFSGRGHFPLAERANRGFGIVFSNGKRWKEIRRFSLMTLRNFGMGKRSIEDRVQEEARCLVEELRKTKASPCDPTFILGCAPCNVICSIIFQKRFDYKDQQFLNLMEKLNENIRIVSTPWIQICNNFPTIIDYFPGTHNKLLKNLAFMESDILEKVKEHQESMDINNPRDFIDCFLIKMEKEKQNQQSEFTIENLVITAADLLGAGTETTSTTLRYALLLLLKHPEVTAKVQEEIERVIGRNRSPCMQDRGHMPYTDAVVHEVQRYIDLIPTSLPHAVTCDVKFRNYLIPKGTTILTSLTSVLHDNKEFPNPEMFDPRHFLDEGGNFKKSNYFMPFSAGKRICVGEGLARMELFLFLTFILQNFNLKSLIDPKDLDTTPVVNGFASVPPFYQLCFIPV
Sequence of Cytochrome P450 2D6 (P10635 whole entry): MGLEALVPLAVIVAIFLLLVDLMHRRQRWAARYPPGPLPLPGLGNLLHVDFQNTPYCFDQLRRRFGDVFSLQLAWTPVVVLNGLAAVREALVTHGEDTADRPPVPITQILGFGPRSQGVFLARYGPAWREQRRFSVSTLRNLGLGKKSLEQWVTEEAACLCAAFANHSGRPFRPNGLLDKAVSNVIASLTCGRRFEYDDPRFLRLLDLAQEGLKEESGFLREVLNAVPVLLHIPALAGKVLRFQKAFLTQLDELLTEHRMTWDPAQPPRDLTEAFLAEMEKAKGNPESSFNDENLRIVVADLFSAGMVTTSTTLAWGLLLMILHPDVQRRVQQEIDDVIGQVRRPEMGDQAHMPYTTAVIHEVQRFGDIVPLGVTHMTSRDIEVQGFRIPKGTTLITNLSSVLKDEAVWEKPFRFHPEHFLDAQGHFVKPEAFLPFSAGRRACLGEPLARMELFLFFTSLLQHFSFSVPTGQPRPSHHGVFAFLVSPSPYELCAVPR

## C[C@@H](O)c1nc2cnc3[nH]ccc3c2n1[C@H]1CC[C@H](C#N)CC1
Rattus norvegicus [1]
  Activity: Active
Cytochrome P450 3A4 [2]
  IC50: > 10 µM
[3]
  AUC: 50.1 µM·h
[4]
  AUC: 269 µM·h
[5]
  AUC: 10.6 µM·h
[6]
  AUC: 59.6 µM·h
[7]
  AUC: 467 µM·h
[8]
  AUC: 15 µM·h
Rattus norvegicus [9]
  Activity: Active
Rattus norvegicus [10]
  Activity: Active
Cytochrome P450 1A2
  IC50: > 10 µM
Cytochrome P450 3A4 [11]
  IC50: 7.9 µM
[12]
  Ki: 0.28 µM
[13]
  inhibition: 55%
[14]
  bioavailability: 65%
[15]
  bioavailability: 119%
[16]
  bioavailability: 52%
[17]
  Cmax: 0.63 µM
[18]
  Cmax: 2.1 µM
[19]
  AUC: 3.9 µM·h
[20]
  AUC: 8.3 µM·h
[21]
  AUC: 0.94 µM·h
[22]
  half-life: 1.7 h
[23]
  half-life: 2.2 h
[24]
  half-life: 0.5 h
[25]
  clearance: 0.96 L/h/kg
[26]
  clearance: 1.08 L/h/kg
[27]
  clearance: 3.6 L/h/kg
[28]
  CLhep predicted: 0.144 L/h/kg
[29]
  CLhep predicted: 0.18 L/h/kg
[30]
  CLhep predicted: 0.222 L/h/kg
[31]
  fraction unbound: 0.4
[32]
  fraction unbound: 0.53
[33]
  Papp B→A: 47 nm/s
[34]
  fraction unbound: 0.62
[35]
  solubility thermodynamic: 1.9 mM (≈ 588 µg/mL)
[36]
  solubility thermodynamic: > 4 mM
[37]
  CLhep predicted: 0.198 L/h/kg
[38]
  CLhep predicted: 0.102 L/h/kg
[39]
  Papp A→B: 27 nm/s
[40]
  Cmax: 0.42 µM
Cytochrome P450 2C19
  IC50: > 10 µM
Cytochrome P450 2D6
  IC50: > 10 µM
Cytochrome P450 2C9
  IC50: > 10 µM
[41]
  IC50: > 100 µM
[42]
  EC50: 5.6 µM
[43]
  Ki: 0.012 µM
[44]
  EC50: 0.13 µM
[45]
  EC50: 0.12 µM
[46]
  Ki: 0.0019 µM

## C[C@@H](O)c1nc2cnc3[nH]ccc3c2n1[C@H]1CCCOC1
Cytochrome P450 3A4 [2]
  IC50: > 10 µM
Cytochrome P450 1A2
  IC50: > 10 µM
Cytochrome P450 3A4 [11]
  IC50: > 10 µM
[14]
  bioavailability: 70%
[15]
  bioavailability: 111%
Rattus norvegicus [47]
  F: 197%
[17]
  Cmax: 1.8 µM
[18]
  Cmax: 9.8 µM
[19]
  AUC: 4.3 µM·h
[20]
  AUC: 65.7 µM·h
[21]
  AUC: 10.7 µM·h
[22]
  half-life: 1.1 h
[23]
  half-life: 5.7 h
[24]
  half-life: 1.5 h
[25]
  clearance: 0.126 L/h/kg
[26]
  clearance: 1.14 L/h/kg
[27]
  clearance: 1.32 L/h/kg
[28]
  CLhep predicted: 1.26 L/h/kg
[29]
  CLhep predicted: 0.294 L/h/kg
[30]
  CLhep predicted: 0.138 L/h/kg
[31]
  fraction unbound: 0.46
[32]
  fraction unbound: 0.39
[33]
  Papp B→A: 86 nm/s
[34]
  fraction unbound: 0.61
[35]
  solubility thermodynamic: > 4 mM
[36]
  solubility thermodynamic: > 4 mM
[37]
  CLhep predicted: 0.12 L/h/kg
[38]
  CLhep predicted: 0.114 L/h/kg
[39]
  Papp A→B: 76 nm/s
[40]
  Cmax: 5.2 µM
Cytochrome P450 2C19
  IC50: > 10 µM
Cytochrome P450 2D6
  IC50: > 10 µM
Cytochrome P450 2C9
  IC50: > 10 µM
[41]
  IC50: > 100 µM
[42]
  EC50: > 5.8 µM
[43]
  Ki: 0.031 µM
[44]
  EC50: 0.18 µM
[45]
  EC50: 0.11 µM
[46]
  Ki: 0.0028 µM
